Results: patent publication EP0256909B1, “N,N-bis-(4-fluorophenyl) carbamoyl acetohydroxamic acid and pharmaceutical composition containing it” (priority 1986, dated 1988)

Tests used:
[1] = tested on: souris; experiment: in vivo; conditions: 24 h after administration
Description: (§1) Le CRL 41131, en suspension dans une solution de gomme arabique à 5%, a été administré par voie intrapéritonéale sous un volume de 20 ml/kg chez la souris (mâle, NMRI, Evic Ceba) et de 5 ml/kg chez le rat (mâle, CD1, Sprague Dawley, Charles River).
(§2) Aussitôt après l'administration de CRL 41131, les souris groupées par lots de 10 sont placées dans des boîtes en Plexiglass (20 x 10 x 10 cm).
(§3) On note le nombre d'animaux morts, toutes les heures pendant 4 h et après 24, 48 et 72 h.
(§4) La toxicité du CRL 41131 est déterminée dans les mêmes conditions sur des lots de souris placées à raison d'une par boîte.

[2] = in vivo; conditions: mouse, in vivo, ip; for LD50 at 48 h: 48 h after administration; for LD50 at 72 h: 72 h after administration; for LD50 at 24 h: dose létale 50% (DL50), 24 h after administration; for selectivity ratio: rapport, LD50 ratio isolated/grouped mice (formula not readable)
Description: as §1, §2, §3, §4

[3] = tested on: souris; experiment: Pretoxicity (3 mice per dose); conditions: intraperitoneal, mouse
Description: as §1

[4] = tested on: rat; experiment: Interaction with amphetamine; format: in vivo
[5] = tested on: souris; experiment: Electroshock test; format: in vivo
[6] = comparison section, no dose given

## O=C(CC(=O)N(c1ccc(F)cc1)c1ccc(F)cc1)NO [CRL 41131, acide N,N-bis-(4-fluorophényl) carbamoylacétohydroxamique]
[1]
  toxicité chez les souris groupées par rapport aux souris isolées: modérément plus toxique chez les souris groupées
[2]; DL50, grouped mice
  LD50 at 48 h: ~480 mg/kg
  LD50 at 72 h: ~370 mg/kg
[2]; DL50, isolated mice
  LD50 at 48 h: ~300 mg/kg
  LD50 at 72 h: ~1100 mg/kg
[2]; grouped mice
  LD50 at 24 h: ~700 mg/kg
[2]; isolated mice
  LD50 at 24 h: ~500 mg/kg
[2]; 48 h
  selectivity ratio: 2.7
[2]; 72 h
  selectivity ratio: 2.97
[3]; 512 mg/kg
  Prétoxicité: signes observés: sédation, crampes abdominales, diminution de la fréquence respiratoire pendant 30 min, puis excitation. A 24 h : excitation et stéréotypies
[3]; 1024 mg/kg
  Prétoxicité: signes observés: sédation, crampes abdominales, diminution de la fréquence respiratoire pendant 30 min, puis excitation. A 24 h : excitation, stéréotypies et convulsions
[3]; 128 et 256 mg/kg
  Prétoxicité: signes observés: à partir de 30 min : excitation; à 24 h, l'excitation est encore présente, et présence de stéréotypies
[3]; 128 to 1024 mg/kg
  mortalité: Aucune mortalité
[4]; 64 and above all 256 mg/kg i.p., rat, 30 min before amphetamine 2 mg/kg i.p.
  stéréotypies amphétaminiques: potentialisation importante
[4]; [6]
  test à l'amphétamine: stéréotypies du rat: potentialise ces stéréotypies
[5]; 32, 128 et 512 mg/kg i.p., mouse, 30 min after administration
  effets létaux de l'électrochoc: aggrave modérément les effets létaux de l'électrochoc
[5]; [6]
  test à l'électrochoc: aggrave les effets létaux de l'électrochoc
